Key:
RAD52 [1] = biological target: T1, RAD52 (Homo sapiens, UniProt P43351); conditions: cited from earlier work
T1 sequence (P43351 1-418): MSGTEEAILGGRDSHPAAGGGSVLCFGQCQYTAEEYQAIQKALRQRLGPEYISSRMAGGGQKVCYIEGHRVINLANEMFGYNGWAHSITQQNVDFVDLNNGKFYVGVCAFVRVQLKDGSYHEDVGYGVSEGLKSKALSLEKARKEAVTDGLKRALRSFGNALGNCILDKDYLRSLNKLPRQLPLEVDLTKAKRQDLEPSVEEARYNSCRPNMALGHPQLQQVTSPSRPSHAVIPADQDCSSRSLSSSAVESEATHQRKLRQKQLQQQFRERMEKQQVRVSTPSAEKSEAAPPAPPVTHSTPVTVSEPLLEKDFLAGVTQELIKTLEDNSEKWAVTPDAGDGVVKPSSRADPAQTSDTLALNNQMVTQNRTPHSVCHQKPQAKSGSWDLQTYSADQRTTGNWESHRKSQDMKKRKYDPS

RPA = biological target: T2, RPA (Homo sapiens, UniProt P15927+P27694+P35244); experiment: WaterLOGSY NMR analysis of compound binding to RPA; conditions: 20 or 40 μM compound, 3.3 μM RPA
T2 construct: made in house
Text: Compounds ‘1’ and ‘6’ physically interact with RAD52: To confirm that the selected compounds bind RAD52, we employed water-ligand observation with gradient spectroscopy (WaterLOGSY), an NMR technique, which is based on transfer of magnetization from bulk water to the protein-bound compound of interest (Dalvit et al., 2001, Dalvit et al., 2000). In WaterLOGSY spectrum, if a compound binds to a protein, the compound will receive negative nuclear Overhauser effects (NOEs) due to the slow tumbling of the protein-compound complex, leading to a positive WaterLOGSY peak.
(§1) WaterLOGSY NMR analysis of the compound binding to RAD52 and RPA proteins: Compound binding to RAD52 and RPA proteins was analyzed using water-ligand observation with gradient spectroscopy (WaterLOGSY) NMR experiments (Dalvit et al., 2001, Dalvit et al., 2000). The WaterLOGSY spectra of compounds in the presence of RAD52 or RPA were acquired using a water NOE mixing time of 1 s and a T2 relaxation filter of 50 ms just before data acquisition to suppress the broad signals derived from protein. The protein buffer used in the experiments contains 10 mM Tris-d11, 75 mM KCl, 0.25 mM EDTA, pH 7.5, and 10% D20. All NMR data were acquired on a Bruker Avance II 800 MHz NMR spectrometer equipped with a sensitive cryoprobe and recorded at 25° C. The ^1H chemical shifts were referenced to 2,2-dimethyl-2-silapentane-5-sulfonate (DSS). NMR spectra were processed using NMR Pipe (Delaglio et al., 1995) and analysed using NMR View (Johnson and Blevins, 1994).

[2] = biological target: T3, RAD52-RPA-Cy3-dT30-Cy5 complex (Homo sapiens, UniProt P43351); experiment: FRET-based RAD52 binding/wrapping of RPA-coated ssDNA
T3 construct: made in house
Experimental: RPA binds ssDNA with high affinity and extends the ssDNA to its contour length.
(§2) where FRET0 is the initial FRET value of RAD52-ssDNA complex in the absence of the compound and FRETmin is the FRET value at complete inhibition. FRET values were calculated as an average of three or more independent annealing reactions plotted against the concentration of the compound. Inhibition of the RAD52-dsDNA interaction was assayed in a similar experiment, except the stoichiometric complexes containing 1 nM molecules of Cy3-Oligo28-Cy5 duplex DNA and 10 nM RAD52. […] In all experiments, the FRET values for each data point were corrected for the effects of the compounds on the respective substrate in the absence of RAD52.

RAD52-dsDNA interaction = biological target: T4, RAD52-dsDNA interaction (Homo sapiens, UniProt P43351); experiment: FRET-based RAD52-dsDNA binding assay; conditions: 1 nM dsDNA, 10 nM RAD52
T4 construct: made in house
T4 sequence (P43351 1-418): T1 sequence (P43351 1-418)
Text: These assays utilize two complementary single stranded 28-nucleotide-long substrates, which contain either Cy3 (T-28) or Cy5 (P-28) incorporated into the middle of the respective DNA strand. When the substrates are annealed by RAD52, the Cy3 and Cy5 dyes are separated by 3 base pairs and yield a high FRET signal (FIG. 2 Supplement 2). […] The annealing reactions were initiated by mixing two half reactions and observing the change in FRET over time in the presence of varying concentrations of small molecules. An increasing FRET value over time indicates formation of the dsDNA duplex which brings the two dyes in close proximity (FIG. 2 Supplement 2). Fitting the annealing data to a double exponential allowed us to calculate and compare the final extent of annealing at varying concentrations of each compound compared to RAD52 alone. We plotted the final extent of annealing vs the concentration of the compound and calculated an IC50 of annealing inhibition.
where FRET0 is the initial FRET value of RAD52-ssDNA complex in the absence of the compound and FRETmin is the FRET value at complete inhibition. FRET values were calculated as an average of three or more independent annealing reactions plotted against the concentration of the compound. […]

RPA-ssDNA interaction = biological target: T5, RPA-ssDNA interaction (Homo sapiens, UniProt P15927+P27694+P35244); experiment: FRET titration of the RPA-Cy3-dT30-Cy5 complex; format: binding
T5 construct: made in house
Text: Compounds ‘1’ and ‘6’ inhibit RAD52 binding to and annealing of the RPA-coated ssDNA: In the cell, ssDNA is typically found in complex with Replication protein A (RPA), which is the major eukaryotic ssDNA-binding protein essential for DNA replication, repair and recombination (Wold, 1997, Oakley and Patrick, 2010, Chen and Wold, 2014). The RPA-ssDNA complex is a natural substrate for the RDA52-mediated strand annealing. To confirm that compounds ‘1’ and ‘6’ can inhibit the RAD52 binding to and annealing of the RPA-coated ssDNA we added stoichiometric amounts of RPA (1 RPA per 30 nucleotides of ssDNA) to the FRET-based ssDNA binding/wrapping and ssDNA annealing experiments described above. RPA binds ssDNA with high affinity and extends the ssDNA to its contour length. In our assays such an extension manifests as a distinct FRET state of ˜0.3, which is readily distinguished from a FRET state of ˜0.48 of free Cy3-dT30-Cy5 ssDNA, as well as ˜0.63 FRET of the stoichiometric ssDNA-RPA-RAD52 complex (see FIG. 2 Supplement 1 and (Grimme and Spies, 2011) for details). […] Both, however, inhibited the RAD52 binding to and wrapping of RPA-coated ssDNA with IC50 values identical to those determined without RPA (FIG. 2e and FIG. 3e).
as §2

RAD52 [3] = biological target: T1, RAD52; experiment: WaterLOGSY NMR analysis of compound binding to RAD52; design: made in house; conditions: 20 or 40 μM compound, 3.3 μM RAD52
Experimental: In WaterLOGSY spectrum, if a compound binds to a protein, the compound will receive negative nuclear Overhauser effects (NOEs) due to the slow tumbling of the protein-compound complex, leading to a positive WaterLOGSY peak.
as §1

RAD52-ssDNA interaction = biological target: T6, RAD52-ssDNA interaction (Homo sapiens, UniProt P43351); experiment: FRET-based ssDNA binding and wrapping assay (RAD52-Cy3-dT30-Cy5 complex); conditions: FRET-based competition assay; read-out: IC50, RAD52-ssDNA interaction
T6 construct: made in house
T6 sequence (P43351 1-418): T1 sequence (P43351 1-418)
Experimental: We titrated increasing amounts of each compound into a cuvette containing preformed stoichiometric RAD52-Cy3-dT30-Cy5 complexes (1 nM Cy3-dT30-Cy5 and 8 nM RAD52). […] At each concentration of the compound, the FRET signal was adjusted for the change in Cy3 and Cy5 fluorescence in the presence of the compound, but in the absence of protein.
(§3) FRET-based DNA binding and annealing assays: FRET-based ssDNA binding, dsDNA binding, and annealing assays were carried out as previously described (Grimme et al., 2010, Grimme and Spies, 2011) using Cary Eclipse spectrofluorimeter (Varian) at 25° C. in buffer containing 30 mM Tris-Acetate pH7.5, 1 mM DTT, and 0.1 mg/mL BSA. Cy3 dye was excited at 530 nm and its emission was monitored at 565 nm. Emission of Cy5 acceptor fluorophore excited through the energy transfer from Cy3 donor is monitored at 660 nm simultaneously with emission of Cy3 dye. Both the excitation and the emission slit widths were set to 10 nm.
All experiments were performed in triplicates, and the data are shown as averages and standard deviations for three independent measurements. To remove possible experimental artifacts associated with chromogenic or fluorogenic compounds, as well as with the compounds that may quench or enhance Cy3 or Cy5 fluorescence, we also performed control titrations whereby we titrated each compound into 1 nM Cy3-dT30-Cy5 in the absence of RAD52. For each compound concentration we subtracted the difference in the FRET signal in the presence and absence of the compound from the respective FRET signal in the presence of RAD52. The FRET signal corrected for the compound fluorescence was calculated using the equation: […]
as previously described (Grimme et al., 2010, Grimme and Spies, 2011) and plotted as a function of compound concentration and fitted to the following inhibition model”
as §2

RAD52 [4] = biological target: T7, RAD52 (Homo sapiens, UniProt P43351 P43351:1-418); experiment: competition; 10 nM poly(dT)-100 fully inhibits wrapped RAD52-Cy3-dT30-Cy5 complex (100 nM RAD52, 15 nM dT30); 20 mM Hepes pH 7.5, 1 mM DTT, 0.1 mg/mL BSA; conditions: tags: 6xHis; chain copies: heptameric ring per 30-mer ssDNA (stated)
T7 sequence: T1 sequence (P43351 1-418)

[5] = biological target: RPA (RPA70/RPA35/RPA14 heterotrimer) (UniProt P27694;P15927;P35244 P27694:1-616,P15927:1-270,P35244:1-121); experiment: FRET; 1:1 stoichiometric complex, FRET about 0.3 vs about 0.48 for free ssDNA; 30 mM Tris-acetate pH 7.5, 25 C; conditions: tags: untagged; label: Cy3 and Cy5 at the ends
RAD52 [6] = biological target: T7, RAD52; experiment: method FRET; stoichiometric wrapped complex at about 8 nM RAD52 with 1 nM ssDNA; 30 mM Tris-acetate pH 7.5, 1 mM DTT, 0.1 mg/mL BSA, 25 C; also bound when ssDNA is RPA-coated (FRET about 0.63); conditions: tags: 6xHis; chain copies: heptameric ring per 30-mer ssDNA (stated); label: Cy3 and Cy5 at the ends
Experimental: as §3

T3 sequence (P27694 whole entry partner, one chain of several): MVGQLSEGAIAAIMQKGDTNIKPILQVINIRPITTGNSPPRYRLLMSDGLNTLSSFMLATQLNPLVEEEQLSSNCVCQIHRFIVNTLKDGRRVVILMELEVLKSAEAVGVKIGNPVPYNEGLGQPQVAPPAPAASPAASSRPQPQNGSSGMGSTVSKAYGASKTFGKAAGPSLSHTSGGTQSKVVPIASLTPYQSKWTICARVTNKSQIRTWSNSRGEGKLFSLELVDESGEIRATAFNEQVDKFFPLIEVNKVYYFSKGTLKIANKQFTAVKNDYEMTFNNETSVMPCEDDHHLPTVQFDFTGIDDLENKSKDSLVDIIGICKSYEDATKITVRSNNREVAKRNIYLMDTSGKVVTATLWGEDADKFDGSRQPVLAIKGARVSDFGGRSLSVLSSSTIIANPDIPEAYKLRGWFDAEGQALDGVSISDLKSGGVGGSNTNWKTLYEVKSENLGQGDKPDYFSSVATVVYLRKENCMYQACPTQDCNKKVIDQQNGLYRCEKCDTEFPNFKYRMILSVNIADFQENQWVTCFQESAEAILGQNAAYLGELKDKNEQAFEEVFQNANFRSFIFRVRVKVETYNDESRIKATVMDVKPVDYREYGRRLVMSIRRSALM
T3 sequence (P15927 whole entry partner, one chain of several): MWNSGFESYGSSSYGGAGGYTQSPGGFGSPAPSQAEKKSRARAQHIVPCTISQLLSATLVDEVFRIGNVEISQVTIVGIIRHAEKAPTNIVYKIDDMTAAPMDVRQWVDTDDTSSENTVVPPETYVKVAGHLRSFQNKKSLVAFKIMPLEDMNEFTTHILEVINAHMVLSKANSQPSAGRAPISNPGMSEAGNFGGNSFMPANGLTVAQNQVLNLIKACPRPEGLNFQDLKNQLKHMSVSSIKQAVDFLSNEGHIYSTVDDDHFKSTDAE
T3 sequence (P35244 whole entry partner, one chain of several): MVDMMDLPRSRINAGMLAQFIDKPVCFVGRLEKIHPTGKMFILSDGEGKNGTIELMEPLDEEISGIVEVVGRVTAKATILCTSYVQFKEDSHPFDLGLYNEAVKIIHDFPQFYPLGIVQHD
Chain of RPA (RPA70/RPA35/RPA14 heterotrimer) (P27694 whole entry, chain 1 of 3): as the sequence (P27694 whole entry partner, one chain of several) above
Chain of RPA (RPA70/RPA35/RPA14 heterotrimer) (P15927 whole entry, chain 2 of 3): as the sequence (P15927 whole entry partner, one chain of several) above
Chain of RPA (RPA70/RPA35/RPA14 heterotrimer) (P35244 whole entry, chain 3 of 3): as the sequence (P35244 whole entry partner, one chain of several) above
T5 sequence (P27694 whole entry): as the sequence (P27694 whole entry partner, one chain of several) above
T5 sequence (P15927 whole entry): as the sequence (P15927 whole entry partner, one chain of several) above
T5 sequence (P35244 whole entry): as the sequence (P35244 whole entry partner, one chain of several) above
T2 sequence (P27694 whole entry): as the sequence (P27694 whole entry partner, one chain of several) above
T2 sequence (P15927 whole entry): as the sequence (P15927 whole entry partner, one chain of several) above
T2 sequence (P35244 whole entry): as the sequence (P35244 whole entry partner, one chain of several) above

Question: For `NC(Cc1cc(O)c(O)cc1O)C(=O)O` (racemic) [6-hydroxy-DL-dopa], which “Effect on supramolecular assembly of RAD52” value (RAD52 [1]) is on record?
Answer: disrupts supramolecular assembly of the RAD52 protein

Question: Which results are given for `O=C(O[C@@H]1O[C@@H]2COC(=O)c3cc(O)c(O)c(O)c3-c3c(cc(O)c(O)c3O)C(=O)O[C@H]([C@H]1O)[C@@H]2O)c1cc(O)c(O)c(O)c1` [NP-004255, corilagin]?
Answer: Binding to RPA by WaterLOGSY (RPA): bound RPA; IC50 [2]: 500 ± 100 nM; Effect on the RAD52-dsDNA interaction (RAD52-dsDNA interaction): no effect; Effect on the RPA-ssDNA interaction (RPA-ssDNA interaction): did not affect the RPA-ssDNA complex; Binding to RAD52 by WaterLOGSY (RAD52 [3]): physically interacts with RAD52 protein; IC50 (RAD52-ssDNA interaction): 1500 ± 200 nM

B1: Poly dT100 (ssDNA)
DNA: TTTTTTTTTTTTTTTTTTTTTTTTTTTTTTTTTTTTTTTTTTTTTTTTTTTTTTTTTTTTTTTTTTTTTTTTTTTTTTTTTTTTTTTTTTTTTTTTTTTT
modifications: [none]
Question: Does B1 bind (RAD52 [4])?
Answer: binds

Question: Does TTTTTTTTTTTTTTTTTTTTTTTTTTTTTT (ssDNA) [Cy3-dT30-Cy5] bind [5]?
Answer: binds

Question: Does TTTTTTTTTTTTTTTTTTTTTTTTTTTTTT (ssDNA) [Cy3-dT30-Cy5] bind (RAD52 [6])?
Answer: binds
